ChEMBL document CHEMBL1201862, “PubChem BioAssay data set” (2004)
Active and inactive are the calls of the source.

What was measured:
[1] = Counterscreen for activators of the function of SWI/SNF related, matrix associated, actin dependent regulator of chromatin, subfamily a, member 2 (SMARCA2, BRM): Luminescence-based cell-based high throughput dose response assay to identify non-selective compounds using the VP16 reporter assay.; type: functional
[2] = target: SWI/SNF-related matrix-associated actin-dependent regulator of chromatin subfamily A member 2 (Homo sapiens, UniProt P51531); assay: Luminescence-based cell-based high throughput dose response assay to identify activators of the function of SWI/SNF related, matrix associated, actin dependent regulator of chromatin, subfamily a, member 2 (SMARCA2, BRM).; type: functional
[3] = target: Disintegrin and metalloproteinase domain-containing protein 17 (Homo sapiens, UniProt P78536); assay: inhibition of ADAM17 substrate cleavage – biochemical, quenched FRET substrate, counter-screen for ADAM10 exosite inhibitor project, dose response (AID 743253)
[4] = potency of ADAM10 substrate cleavage blockers – biochemical, QFRET, dose response (AID 743254);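 also: ADAM10 enzyme with the DM2 quenched FRET peptide as substrate; EDANS fluorescence gain as the protease cuts the substrate; inhibitor potency against ADAM10 proteolytic activity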
[5] = general mammalian cell viability loss – inhibitor set, cherry-pick, set 2, cytotoxicity control for miR-122 modulator project, dose response (AID 720697); type: functional, cell-based
cells [6] = type: functional, cell-based
[7] = target: T1, Trace amine-associated receptor 1 (Homo sapiens, UniProt Q96RJ0); assay: Counterscreen for agonists of the human trace amine associated receptor 1 (hTAAR1): Fluorescence-based cell-based high throughput dose response assay to identify hTAAR1 agonist that also desensitize TAAR1 receptor response.; type: functional
T1 sequence (Q96RJ0 whole entry): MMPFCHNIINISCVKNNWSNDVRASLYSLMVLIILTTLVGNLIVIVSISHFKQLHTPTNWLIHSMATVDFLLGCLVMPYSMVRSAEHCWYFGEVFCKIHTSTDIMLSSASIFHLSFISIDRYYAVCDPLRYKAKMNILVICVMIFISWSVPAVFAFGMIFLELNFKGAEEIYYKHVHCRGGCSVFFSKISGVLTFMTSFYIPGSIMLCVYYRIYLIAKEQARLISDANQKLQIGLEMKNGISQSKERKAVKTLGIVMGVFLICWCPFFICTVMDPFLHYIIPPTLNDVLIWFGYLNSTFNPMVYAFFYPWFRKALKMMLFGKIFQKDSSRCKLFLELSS

cells [8] = type: functional, cell-based; remark: listed apart in the source
[9] = target: T1, Trace amine-associated receptor 1; assay: Fluorescence-based cell-based high throughput dose response assay to identify agonists of the human trace amine associated receptor 1 (TAAR1).; type: functional
[10] = target: T2, DNA repair protein RAD52 homolog (Homo sapiens, UniProt P43351); type: functional, biochemical
T2 sequence (P43351 whole entry): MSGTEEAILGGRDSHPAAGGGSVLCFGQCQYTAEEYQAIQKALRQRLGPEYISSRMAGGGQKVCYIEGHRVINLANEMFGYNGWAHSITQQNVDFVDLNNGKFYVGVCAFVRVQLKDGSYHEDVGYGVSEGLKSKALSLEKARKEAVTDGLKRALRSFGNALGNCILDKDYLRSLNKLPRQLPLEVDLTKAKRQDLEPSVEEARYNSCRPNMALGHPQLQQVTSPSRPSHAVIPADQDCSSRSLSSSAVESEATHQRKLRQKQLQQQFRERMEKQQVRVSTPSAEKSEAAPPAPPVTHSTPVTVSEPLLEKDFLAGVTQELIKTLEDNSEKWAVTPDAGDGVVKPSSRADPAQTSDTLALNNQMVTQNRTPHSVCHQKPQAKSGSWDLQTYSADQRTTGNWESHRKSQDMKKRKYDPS

[11] = activation of miR-122 Renilla sensor silencing – cell-based, Huh7 psiCHECK-miR122, Renilla luciferase, cherry-picked, dose response (AID 651956); type: functional;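 also: huh7 hepatoma cells stably carrying a psiCHECK-2 miR-122 sensor plasmid; renilla luciferase signal reporting endogenous miR-122 activity after 48 h compound exposure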
[12] = general mammalian cell viability loss – activator set, cherry-pick, cytotoxicity control for miR-122 modulator project, dose response (AID 720690); type: functional, cell-based;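 also: HEK293T human cells scored for general mammalian cytotoxicity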

Sequence of SWI/SNF-related matrix-associated actin-dependent regulator of chromatin subfamily A member 2 (P51531 whole entry, the tested form may be a part): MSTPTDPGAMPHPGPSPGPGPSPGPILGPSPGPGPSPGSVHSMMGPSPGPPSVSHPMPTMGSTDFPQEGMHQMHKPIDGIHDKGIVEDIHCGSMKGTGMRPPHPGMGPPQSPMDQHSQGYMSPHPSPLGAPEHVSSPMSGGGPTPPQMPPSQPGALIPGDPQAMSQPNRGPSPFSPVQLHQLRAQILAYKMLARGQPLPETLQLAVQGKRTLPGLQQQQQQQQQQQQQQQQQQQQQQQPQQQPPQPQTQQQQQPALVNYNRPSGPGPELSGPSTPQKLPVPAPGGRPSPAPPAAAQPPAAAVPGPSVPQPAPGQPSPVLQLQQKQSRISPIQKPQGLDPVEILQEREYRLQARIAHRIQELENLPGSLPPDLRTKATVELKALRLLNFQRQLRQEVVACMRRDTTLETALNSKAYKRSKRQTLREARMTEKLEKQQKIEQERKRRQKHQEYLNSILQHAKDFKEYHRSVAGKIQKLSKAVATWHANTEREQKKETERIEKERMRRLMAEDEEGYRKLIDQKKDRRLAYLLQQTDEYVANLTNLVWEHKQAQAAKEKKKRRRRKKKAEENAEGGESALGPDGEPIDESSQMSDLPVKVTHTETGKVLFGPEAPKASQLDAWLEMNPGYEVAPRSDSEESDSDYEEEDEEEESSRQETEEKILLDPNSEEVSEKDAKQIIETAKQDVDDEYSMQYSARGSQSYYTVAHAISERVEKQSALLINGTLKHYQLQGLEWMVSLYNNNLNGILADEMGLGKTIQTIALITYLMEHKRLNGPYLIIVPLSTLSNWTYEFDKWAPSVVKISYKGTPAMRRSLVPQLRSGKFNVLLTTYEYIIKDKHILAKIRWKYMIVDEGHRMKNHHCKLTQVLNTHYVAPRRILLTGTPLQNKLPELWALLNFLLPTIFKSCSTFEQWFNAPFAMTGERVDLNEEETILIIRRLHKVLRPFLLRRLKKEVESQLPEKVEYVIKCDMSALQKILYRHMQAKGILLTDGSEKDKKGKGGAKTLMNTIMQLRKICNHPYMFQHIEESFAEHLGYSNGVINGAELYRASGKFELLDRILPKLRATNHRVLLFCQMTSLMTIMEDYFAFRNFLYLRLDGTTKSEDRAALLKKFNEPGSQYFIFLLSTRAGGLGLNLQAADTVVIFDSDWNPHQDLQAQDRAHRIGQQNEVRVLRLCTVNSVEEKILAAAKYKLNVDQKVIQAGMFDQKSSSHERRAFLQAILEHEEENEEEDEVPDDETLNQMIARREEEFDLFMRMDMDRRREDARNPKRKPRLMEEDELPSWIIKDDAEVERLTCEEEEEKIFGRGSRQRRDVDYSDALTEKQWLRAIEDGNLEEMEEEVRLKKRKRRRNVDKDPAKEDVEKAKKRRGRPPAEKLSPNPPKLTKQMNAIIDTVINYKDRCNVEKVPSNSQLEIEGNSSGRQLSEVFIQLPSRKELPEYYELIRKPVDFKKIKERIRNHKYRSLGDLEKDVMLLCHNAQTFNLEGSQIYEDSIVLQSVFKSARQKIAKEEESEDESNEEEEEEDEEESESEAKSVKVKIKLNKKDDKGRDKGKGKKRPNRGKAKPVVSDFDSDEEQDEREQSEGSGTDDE
Sequence of Disintegrin and metalloproteinase domain-containing protein 17 (P78536 whole entry, the tested form may be a part): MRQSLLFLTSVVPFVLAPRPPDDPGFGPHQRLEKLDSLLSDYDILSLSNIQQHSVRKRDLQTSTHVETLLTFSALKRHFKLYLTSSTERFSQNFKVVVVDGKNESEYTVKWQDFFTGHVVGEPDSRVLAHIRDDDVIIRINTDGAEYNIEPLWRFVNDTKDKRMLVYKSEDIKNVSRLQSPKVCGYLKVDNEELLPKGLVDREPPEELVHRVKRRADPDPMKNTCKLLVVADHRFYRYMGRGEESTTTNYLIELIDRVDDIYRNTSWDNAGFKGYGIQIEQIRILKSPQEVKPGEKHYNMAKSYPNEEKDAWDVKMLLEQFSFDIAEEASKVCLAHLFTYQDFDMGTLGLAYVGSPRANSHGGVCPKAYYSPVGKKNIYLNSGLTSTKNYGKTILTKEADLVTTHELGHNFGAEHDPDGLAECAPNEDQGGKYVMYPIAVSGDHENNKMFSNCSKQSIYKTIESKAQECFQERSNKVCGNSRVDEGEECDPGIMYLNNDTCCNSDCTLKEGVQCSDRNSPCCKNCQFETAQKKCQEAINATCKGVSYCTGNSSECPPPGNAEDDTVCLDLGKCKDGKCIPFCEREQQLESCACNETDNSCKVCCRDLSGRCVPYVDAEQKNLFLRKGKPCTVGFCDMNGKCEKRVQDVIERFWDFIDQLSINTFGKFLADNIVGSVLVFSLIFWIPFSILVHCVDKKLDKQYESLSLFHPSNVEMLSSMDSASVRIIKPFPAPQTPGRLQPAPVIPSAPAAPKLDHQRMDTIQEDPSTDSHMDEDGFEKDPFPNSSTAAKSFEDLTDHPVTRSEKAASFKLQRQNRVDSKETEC

O=C(CSc1nnc2ccccn12)Nc1ncc(Cl)cc1Cl
EC50 [1]: > 91.2 µM (inactive)
EC50 [2]: > 91.2 µM (inactive)

CC(C)(C)c1ccc(-c2nnc(SCC(=O)Nc3ccc(S(=O)(=O)Nc4nccs4)cc3)n2-c2ccc(Cl)cc2)cc1
IC50 [3]: > 69.5 µM (inactive)
IC50 [4]: 10.6 µM (inactive)

O=C(c1ccco1)N1CCN(C2CC(=O)N(c3ccccc3)C2=O)CC1 (stereo not drawn)
AC50 [5]: 5.02 µM (active)

O=C(NCCc1ccccc1)C(=O)NCC1OCCN1S(=O)(=O)c1ccccc1 (stereo not drawn)
EC50 (cells [6]): > 29.9 µM (inactive)
IC50 [7]: 11.8 µM (inactive)
IC50 (cells [8]): > 29.9 µM (inactive)
EC50 [9]: 5.39 µM (active)

COc1ccccc1CCNCc1ccc(OC)c(OC)c1OC
EC50 (cells [6]): > 29.9 µM (inactive)
IC50 [7]: 10.5 µM (inactive)
IC50 (cells [8]): > 29.9 µM (inactive)
EC50 [9]: 2.37 µM (active)

N=C(N)NCCC[C@@H]1NC(=O)c2cc([N+](=O)[O-])cc(F)c2NCCCC[C@@H](C(N)=O)NC(=O)CNC1=O
AC50 [10]: 14.8 µM (active)

Clc1ccc(-c2nc3ccc(Cl)cn3c2Cc2ccsc2)cc1
EC50 [1]: > 91.2 µM (inactive)
EC50 [2]: > 91.2 µM (inactive)

CN1C(=O)c2cc(NC(=O)c3ccc(C(F)(F)F)cc3)ccc2OC[C@@H]2O[C@@H](CC(=O)NCc3ccc4c(c3)OCO4)CC[C@@H]21
AC50 [11]: 13.8 µM (active)
AC50 [12]: 23.8 µM (active)
